Reference: patent US8211662B2, “Nitroreductase enzymatic substrates” (Biomerieux, priority 2007, dated 2012)

Tests used:
Test in all cases: Nitroreductase detection on Columbia agar, colonies read under UV
Conditions in all cases: Table 3; 100 mg/l in Columbia agar, 24 h 37° C., UV 360-365 nm
[1] = test system: MRSA NCTC 11939; type: cell-based, Staphylococcus aureus; parameters: key: − = no fluorescence detected; +/− = weak fluorescence; + = medium fluorescence; ++ = strong fluorescence
Method: (§1) A mass of 40 mg of each substrate was dissolved in 4 ml of dimethylformamide (DMF). This solution was entirely taken up in 400 ml of Columbia agar autoclaved beforehand and kept molten at 50° C. The final concentration for each substrate was 100 mg/l.
(§2) Each of the media was distributed into Petri dishes 90 mm in diameter, in a proportion of 20 ml per dish.
(§3) 18 microorganism strains derived from collections and belonging to various species of bacteria and of yeasts were inoculated onto these media by semi-quantitative isolation of 10 μl of a suspension at 0.5 McFarland diluted to 1/20. The media were incubated for 24 hours at 37° C., then the colonies formed were examined visually under UV illumination at 360-365 nm.

[2] = test system: Enterobacter cloacae NCTC 11936; type: cell-based; parameters: key: − = no fluorescence detected; +/− = weak fluorescence; + = medium fluorescence; ++ = strong fluorescence
Method: as §1, §2, §3

[3] = test system: Bacillus subtilis NCTC 9372; type: cell-based; parameters: key: − = no fluorescence detected; +/− = weak fluorescence; + = medium fluorescence; ++ = strong fluorescence
Method: as §1, §2, §3

[4] = test system: Enterococcus faecalis NCTC 775; type: cell-based; parameters: key: − = no fluorescence detected; +/− = weak fluorescence; + = medium fluorescence; ++ = strong fluorescence
Method: as §1, §2, §3

[5] = test system: Candida albicans ATCC 90028; type: cell-based; parameters: key: − = no fluorescence detected; +/− = weak fluorescence; + = medium fluorescence; ++ = strong fluorescence
Method: as §1, §2, §3

[6] = test system: Yersinia enterocolitica NCTC 11176; type: cell-based; parameters: key: − = no fluorescence detected; +/− = weak fluorescence; + = medium fluorescence; ++ = strong fluorescence
Method: as §1, §2, §3

[7] = test system: Burkholderia cepacia 1222; type: cell-based; parameters: key: − = no fluorescence detected; +/− = weak fluorescence; + = medium fluorescence; ++ = strong fluorescence
Method: as §1, §2, §3

[8] = test system: Staphylococcus aureus NCTC 6571; type: cell-based; parameters: key: − = no fluorescence detected; +/− = weak fluorescence; + = medium fluorescence; ++ = strong fluorescence
Method: as §1, §2, §3

[9] = test system: Staphylococcus epidermidis NCTC 11047; type: cell-based; parameters: key: − = no fluorescence detected; +/− = weak fluorescence; + = medium fluorescence; ++ = strong fluorescence
Method: as §1, §2, §3

[10] = test system: Serratia marcescens NCTC 10211; type: cell-based; parameters: key: − = no fluorescence detected; +/− = weak fluorescence; + = medium fluorescence; ++ = strong fluorescence
Method: as §1, §2, §3

[11] = test system: Enterococcus faecium NCTC 7171; type: cell-based; parameters: key: − = no fluorescence detected; +/− = weak fluorescence; + = medium fluorescence; ++ = strong fluorescence
Method: as §1, §2, §3

[12] = test system: Listeria monocytogenes NCTC 11994; type: cell-based; parameters: key: − = no fluorescence detected; +/− = weak fluorescence; + = medium fluorescence; ++ = strong fluorescence
Method: as §1, §2, §3

[13] = test system: Citrobacter freundii 46262 (wild); type: cell-based; parameters: key: − = no fluorescence detected; +/− = weak fluorescence; + = medium fluorescence; ++ = strong fluorescence
Method: as §1, §2, §3

[14] = test system: Escherichia coli NCTC 10418; type: cell-based; parameters: key: − = no fluorescence detected; +/− = weak fluorescence; + = medium fluorescence; ++ = strong fluorescence
Method: as §1, §2, §3

[15] = test system: Providencia rettgeri NCTC 7475; type: cell-based; parameters: key: − = no fluorescence detected; +/− = weak fluorescence; + = medium fluorescence; ++ = strong fluorescence
Method: as §1, §2, §3

[16] = test system: Streptococcus pyogenes NCTC 8306; type: cell-based; parameters: key: − = no fluorescence detected; +/− = weak fluorescence; + = medium fluorescence; ++ = strong fluorescence
Method: as §1, §2, §3

[17] = test system: Pseudomonas aeruginosa NCTC 10662; type: cell-based; parameters: key: − = no fluorescence detected; +/− = weak fluorescence; + = medium fluorescence; ++ = strong fluorescence
Method: as §1, §2, §3

[18] = test system: Salmonella typhimurium NCTC 74; type: cell-based; parameters: key to Intensity of fluorescence, Salmonella typhimurium NCTC 74 / F: fluorescence (intensity), Salmonella typhimurium NCTC 74 / Intensity of the fluorescence, Salmonella typhimurium NCTC 74: − = no fluorescence detected; +/− = weak fluorescence; + = medium fluorescence; ++ = strong fluorescence
Method: as §1, §2, §3

[19] = test system: Candida glabrata NCPF 3943; type: cell-based; parameters: key to Intensity of fluorescence, Candida glabrata NCPF3943 / F: fluorescence (intensity), Candida glabrata NCPF 3943 / Intensity of the fluorescence, Candida glabrata NCPF 3943: − = no fluorescence detected; +/− = weak fluorescence; + = medium fluorescence; ++ = strong fluorescence
Method: as §1, §2, §3

[20] = test system: Morganella morganii 462403 (wild); type: cell-based; parameters: key to Intensity of fluorescence, Morganella morganii 462403 / F: fluorescence (intensity), Morganella morganii 462403 (wild) / Intensity of the fluorescence, Morganella morganii 462403 (wild): − = no fluorescence detected; +/− = weak fluorescence; + = medium fluorescence; ++ = strong fluorescence
Method: as §1, §2, §3

In the case of `O=[N+]([O-])c1cc2c(cc1-c1nc3ccccc3o1)OCO2` [Substrate 5], the “F: fluorescence (intensity), MRSA NCTC 11939” value [1] is reported as “++”, the “F: fluorescence (intensity), Enterobacter cloacae NCTC 11936” value [2] is reported as “++” and the “F: fluorescence (intensity), Bacillus subtilis NCTC 9372” value [3] is reported as “−”. The “F: fluorescence (intensity), Enterococcus faecails NCTC 775” value [4] was “−”, the “F: fluorescence (intensity), Candida albicans ATCC 90028” value [5] was “−” and the “F: fluorescence (intensity), Yersinia enterocolitica NCTC 11176” value [6] was “−”. The “F: fluorescence (intensity), Burkholderia cepacia 1222” value [7] was “+”, the “F: fluorescence (intensity), Staphylococcus aureus NCTC 6571” value [8] was “++” and the “F: fluorescence (intensity), Staphylococcus epidermidis NCTC 11047” value [9] was “−”. The “F: fluorescence (intensity), Serratia marcescens NCTC 10211” value [10] was “++”, the “F: fluorescence (intensity), Enterococcus faecium NCTC 7171” value [11] was “−” and the “F: fluorescence (intensity), Listeria monocyto genes NCTC 11994” value [12] was “+”. The “F: fluorescence (intensity), Citrobacter freundii 46262 (wild)” value [13] was “++”, the “F: fluorescence (intensity), Escherichia coli NCTC 10418” value [14] was “++” and the “F: fluorescence (intensity), Providencia rettgeri NCTC 7475” value [15] was “+”. The “F: fluorescence (intensity), Streptococcus pyogenes NCTC 8306” value [16] was “−”, the “F: fluorescence (intensity), Pseudomonas aeruginosa NCTC 10662” value [17] was “+” and the “F: fluorescence (intensity), Salmonella typhimurium NCTC 74” value [18] was “++”. For the same compound, the “F: fluorescence (intensity), Candida glabrata NCPF 3943” value [19] was “−” and the “F: fluorescence (intensity), Morganella morganii 462403 (wild)” value [20] was “++”.
